Test results as given in patent publication US11174251B2, “Compositions and methods for inhibition of the JAK pathway” (Rigel Pharmaceuticals, Inc., priority 2010, dated 2021).
Where a name gives a salt, the structure may show the parent alone.

target: T1, JAK3 (Homo sapiens, UniProt P52333); assay: Assay for CD23 expression on Ramos B-cells stimulated by IL-4 (Table IV: ability to inhibit JAK3 activity); type: cell-based; conditions: tested under conditions described in Example 3 (so in the source)
T1 construct: The Ramos B-cell line was acquired from ATCC (ATCC Catalog No. CRL-1596); host or cells: Ramos B-cell line (human)
T1 sequence (P52333 1-1124): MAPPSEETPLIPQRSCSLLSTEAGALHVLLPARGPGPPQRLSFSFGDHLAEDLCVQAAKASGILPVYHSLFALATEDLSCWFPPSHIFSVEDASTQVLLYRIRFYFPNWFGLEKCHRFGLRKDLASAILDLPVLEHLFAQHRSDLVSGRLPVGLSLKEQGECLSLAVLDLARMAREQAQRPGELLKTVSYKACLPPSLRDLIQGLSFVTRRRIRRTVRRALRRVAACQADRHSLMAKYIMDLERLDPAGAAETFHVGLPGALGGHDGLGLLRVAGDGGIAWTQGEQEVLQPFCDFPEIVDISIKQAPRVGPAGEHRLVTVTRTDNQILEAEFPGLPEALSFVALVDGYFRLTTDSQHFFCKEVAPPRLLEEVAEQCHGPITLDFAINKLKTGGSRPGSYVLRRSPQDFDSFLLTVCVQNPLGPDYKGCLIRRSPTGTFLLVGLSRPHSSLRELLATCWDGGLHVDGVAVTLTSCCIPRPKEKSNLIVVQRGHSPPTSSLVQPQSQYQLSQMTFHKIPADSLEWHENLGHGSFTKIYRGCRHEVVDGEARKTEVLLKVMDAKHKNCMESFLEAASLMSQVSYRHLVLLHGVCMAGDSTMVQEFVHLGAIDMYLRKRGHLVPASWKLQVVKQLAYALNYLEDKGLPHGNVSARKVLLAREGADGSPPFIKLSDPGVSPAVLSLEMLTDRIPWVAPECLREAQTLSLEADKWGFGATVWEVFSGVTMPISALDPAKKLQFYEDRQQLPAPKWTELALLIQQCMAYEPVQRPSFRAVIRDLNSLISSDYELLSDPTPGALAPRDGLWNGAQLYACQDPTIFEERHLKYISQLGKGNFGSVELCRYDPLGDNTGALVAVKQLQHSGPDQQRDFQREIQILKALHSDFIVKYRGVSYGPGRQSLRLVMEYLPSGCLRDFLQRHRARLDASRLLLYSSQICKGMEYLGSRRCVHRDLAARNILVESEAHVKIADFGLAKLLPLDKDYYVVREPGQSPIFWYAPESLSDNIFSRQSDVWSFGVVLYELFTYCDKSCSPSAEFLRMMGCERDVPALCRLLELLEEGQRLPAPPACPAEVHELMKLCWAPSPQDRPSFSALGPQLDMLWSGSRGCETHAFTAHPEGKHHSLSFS
Summary of the method: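 Human Ramos B cells in RPMI with 5% serum, pre-incubated 1 h at 37 °C with compound or DMSO, then stimulated with IL-4 (final 50 units/mL) for 20–24 h. Surface CD23 upregulation measured by FACS staining as readout of JAK1/JAK3–Stat-6 signalling.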

Row | IC50 [nM] | Compound
1 | 500 to 5000 | Cc1cnc(Nc2cc(C)c(C)c(C)c2)nc1Nc1cc(CN(C)C)c2oc(=O)[nH]c2c1 [Compound I-89, 5-(2-(3,4,5-trimethylphenylamino)-5-methylpyrimidin-4-ylamino)-7-((dimethylamino)methyl)benzo[d]oxazol-2(3H)-one ditrifluoroacetate salt]
2 | < 500 | COc1ccc(Nc2ncc(F)c(Nc3ccc4oc(=O)[nH]c4c3)n2)cc1-c1cccnc1 [Compound I-209, 5-(2-(4-methoxy-3-(pyridin-3-yl)phenylamino)-5-fluoropyrimidin-4-ylamino)benzo[d]oxazol-2(3H)-one formate salt]
3 | > 10000 | COC(=O)c1cnc(Nc2ccc(C(N)=O)cc2)nc1Nc1ccc2oc(=O)[nH]c2c1 [Compound I-54, 2-(4-Carbamoyl-phenylamino)-4-(2-oxo-2,3-dihydro-benzooxazol-5-ylamino)-pyrimidine-5-carboxylic acid methyl ester trifluoroacetate salt]
4 | < 500 | Cc1cnc(Nc2cc(C)c(C)c(C)c2)nc1Nc1ccc2oc(=O)n(COP(=O)(O)O)c2c1 [Compound I-132, 5-methyl-N4-[3-(phosphonooxy)methyl-2-oxo-2,3-dihydro-1,3-benzoxazol-5-yl]-N2-(3,4,5-trimethyl)phenyl-2,4-pyrimidinediamine Tris salt]
5 | < 500 | COCc1c(C)cc(Nc2ncc(C)c(Nc3ccc4oc(=O)[nH]c4c3)n2)cc1C [Compound I-143, N2-(3,5-dimethyl-4-methoxymethyl)phenyl-5-methyl-N4-(2-oxo-2,3-dihydro-1,3-benzoxazol-5-yl)-2,4-pyrimidinediamine]
6 | < 500 | COc1cc(Nc2ncc(F)c(Nc3cc(C)c4oc(=O)[nH]c4c3)n2)cc(C)c1OC [Compound I-183, 5-(2-(3,4-dimethoxy-5-methylphenylamino)-5-fluoropyrimidin-4-ylamino)-7-methylbenzo[d]oxazol-2(3H)-one trifluoroacetate salt]
7 | 500 to 5000 | CCN(CC)Cc1cnc(Nc2cc(C)c(C)c(C)c2)nc1Nc1ccc2oc(=O)[nH]c2c1 [Compound I-97, 5-(5-((diethylamino)methyl)-2-(3,4,5-trimethylphenylamino)pyrimidin-4-ylamino)benzo[d]oxazol-2(3H)-one ditrifluoroacetate salt]
8 | 500 to 5000 | COc1c(F)ccc(Nc2ncc(F)c(Nc3cc(C)c4oc(=O)[nH]c4c3)n2)c1F [Compound I-192, 5-(2-(2,4-difluoro-3-methoxyphenylamino)-5-fluoropyrimidin-4-ylamino)-7-methylbenzo[d]oxazol-2(3H)-one trifluoroacetate salt]
9 | < 500 | NS(=O)(=O)c1cccc(Nc2ncc(F)c(Nc3cc(F)c4oc(=O)[nH]c4c3)n2)c1 [Compound I-174, 3-(5-fluoro-4-(7-fluoro-2-oxo-2,3-dihydrobenzo[d]oxazol-5-ylamino)pyrimidin-2-ylamino)benzenesulfonamide trifluoroacetate salt]

The next lines start with the molecule.

Row | Compound | IC50 [nM]
10 | O=C1COc2cc(Nc3ncc(F)c(Nc4ccc5oc(=O)[nH]c5c4)n3)ccc2N1 [II-25, 7-(4-(2,3-dihydro-2-oxobenzo[d]oxazol-5-ylamino)-5-fluoropyrimidin-2-ylamino)-2H-benzo[b][1,4]oxazin-3(4H)-one formate salt] | < 500
11 | Cc1cc(Nc2nc(Nc3ccc(F)c(S(C)(=O)=O)c3)ncc2F)cc2[nH]c(=O)oc12 [Compound I-173, 5-(2-(4-fluoro-3-(methylsulfonyl)phenylamino)-5-fluoropyrimidin-4-ylamino)-7-methylbenzo[d]oxazol-2(3H)-one trifluoroacetate salt] | < 500
12 | COc1cc(Nc2ncc(C)c(Nc3ccc4oc(=O)[nH]c4c3)n2)cc(C)c1F [Compound I-105, 5-(2-(4-fluoro-3-methoxy-5-methylphenylamino)-5-methylpyrimidin-4-ylamino)benzo[d]oxazol-2(3H)-one] | < 500
13 | CCc1ccc(Nc2ncc(C)c(Nc3ccc4oc(=O)[nH]c4c3)n2)c(F)c1OC [Compound I-68, 5-[2-(4-Ethyl-2-fluoro-3-methoxy-phenylamino)-5-methyl-pyrimidin-4-ylamino]-3H-benzooxazol-2-one trifluoroacetate salt] | < 500
14 | CCN(CC)Cc1cc(Nc2nc(Nc3cc(C)c(C)c(C)c3)ncc2C)cc2[nH]c(=O)oc12 [Compound I-90, 7-((diethylamino)methyl)-5-(2-(3,4,5-trimethylphenylamino)-5-methylpyrimidin-4-ylamino)benzo[d]oxazol-2(3H)-one ditrifluoroacetate salt] | 500 to 5000
15 | Cc1ccc(Nc2ncc(F)c(Nc3ccc4oc(=O)[nH]c4c3)n2)cc1-c1cccnc1 [Compound I-204, 5-(2-(4-methyl-3-(pyridin-3-yl)phenylamino)-5-fluoropyrimidin-4-ylamino)benzo[d]oxazol-2(3H)-one] | < 500
16 | [2H]C([2H])([2H])c1c(C)cc(Nc2ncc(Cl)c(Nc3ccc4oc(=O)[nH]c4c3)n2)cc1C [Compound I-36, 5-(5-chloro-2-(3,5-dimethyl-4-d3-methyl)phenylamino)pyrimidin-4-ylamino)benzo[d]oxazol-2(3H)-one trifluoroacetate salt] | < 500
17 | CCOc1ccc(Nc2ncc(C)c(Nc3ccc4oc(=O)[nH]c4c3)n2)c(F)c1OCC [Compound I-101, 5-(2-(3,4-diethoxy-2-fluorophenylamino)-5-methylpyrimidin-4-ylamino)benzo[d]oxazol-2(3H)-one] | < 500
18 | COCCOc1c(C)ccc(Nc2ncc(Cl)c(Nc3ccc4oc(=O)[nH]c4c3)n2)c1F [Compound I-66, 5-(5-chloro-2-(2-fluoro-3-(2-methoxyethoxy)-4-methylphenylamino)pyrimidin-4-ylamino)benzo[d]oxazol-2(3H)-one trifluoroacetate salt] | < 500
19 | CS(=O)(=O)c1cc(Nc2ncc(F)c(Nc3ccc4oc(=O)[nH]c4c3)n2)ccc1F [Compound I-168, 5-(2-(4-fluoro-3-(methylsulfonyl)phenylamino)-5-fluoropyrimidin-4-ylamino)benzo[d]oxazol-2(3H)-one trifluoroacetate salt] | < 500
20 | COc1cccc(Nc2ncc(Br)c(Nc3ccc4oc(=O)[nH]c4c3)n2)c1F [Compound I-22, 5-(5-bromo-2-(2-fluoro-3-methoxyphenylamino)pyrimidin-4-ylamino)benzo[d]oxazol-2(3H)-one trifluoroacetate salt] | < 500
21 | CCOC(=O)c1c(C)cc(Nc2ncc(C)c(Nc3ccc4oc(=O)[nH]c4c3)n2)cc1OC [Compound I-128, ethyl 4-(4-(2,3-dihydro-2-oxobenzo[d]oxazol-5-ylamino)-5-methylpyrimidin-2-ylamino)-2-methoxy-6-methylbenzoate] | < 500
22 | Cc1cnc(Nc2cc(C)c(C)c(C)c2)nc1Nc1ccc2oc(=O)n(COP(=O)(OCCN(C)C)OCCN(C)C)c2c1 [Compound I-134, N4-{3-bis[2-(N,N-dimethylamino)ethoxy]phosphinyloxymethyl-2-oxo-2,3-dihydro-1,3-benzoxazol-5-yl}-5-methyl-N2-(3,4,5-trimethyl)phenyl-2,4-pyrimidinediamine] | > 10000
23 | O=C1NCC=Cc2cc(Nc3ncc(F)c(Nc4ccc5oc(=O)[nH]c5c4)n3)ccc21 [II-23, 5-(5-fluoro-2-(1-oxo-2,3-dihydro-1H-benzo[c]azepin-7-ylamino)pyrimidin-4-ylamino)benzo[d]oxazol-2(3H)-one formate salt] | < 500
24 | Cc1cnc(Nc2cc(C)c(C)c(C)c2)nc1Nc1cc(CN2CCNCC2)c2oc(=O)[nH]c2c1 [Compound I-95, 5-(2-(3,4,5-trimethylphenylamino)-5-methylpyrimidin-4-ylamino)-7-((piperazin-1-yl)methyl)benzo[d]oxazol-2(3H)-one ditrifluoroacetate salt] | 5000 to 10000
25 | COC(=O)c1cnc(Nc2ccccc2)nc1Nc1ccc2oc(=O)[nH]c2c1 [Compound I-39, 4-(2-oxo-2,3-dihydro-benzooxazol-5-ylamino)-2-phenylamino-pyrimidine-5-carboxylic acid methyl ester trifluoroacetate salt] | > 10000
26 | Cc1cnc(Nc2ccc(C)c3c2COC3=O)nc1Nc1ccc2oc(=O)[nH]c2c1 [II-12, 5-methyl-N4-(2-oxo-2,3-dihydro-1,3-benzoxazol-5-yl)-N2-(1-oxo-1,3-dihydro-7-methylisobenzofuran-4-yl)-2,4-pyrimidinediamine] | < 500
